Where “and” joins values, the source holds several entries; their conditions need not be identical. Equal entries are not always repeated.
Columns and labels:
[1] = tested on: croton oil-induced ear edema; experiment: Mouse ear edema inhibition test (croton oil); format: in vivo, male ICR mouse; settings: ear swelling thickness 4 hours after 2.5% croton oil, oral 20 mg/kg, 1 hour before
Method: To achieve active fraction and ingredient identification of herbal extracts, an activity-guided sub-fractionation was conducted by way of a mouse ear edema inhibition test. To evaluate the edema inhibitory effects of the MC, EA and BuOH fractions from the herbal extracts of Examples 1.2 and 1.3 and the three compounds identified above, an activity test was conducted according to a method by Hee Kee Kim et al. [Hee Kee Kim et al., Arch. Pharm. Res. 16(1), 1993, 18-24]. The positive control group received Indomethacin (purchased from Sigma) at a dosage of 20 mg/kg. The test group received 200 mg/kg of the MC, EA or BuOH fraction, or 20 mg/kg of the compound 1, 2 or 3. One hour after the oral administration, 2.5% croton oil (purchased from Sigma) was applied to the one ear of a male ICR mouse (7 weeks old, 28-32 g, Orient) to induce an acute inflammation. In 4 hours, the swelling of the ear was measured in terms of thickness.

[2] = tested on: gentamicin-induced nephritis model; experiment: Therapeutic effect of compounds 1-3 on gentamicin-induced nephritis model (Experimental Example 10); format: in vivo, male SD rats; settings: for Creatinine / B.U.N.: 20 mg/kg; for Creatinine: negative control 1.32 ± 0.12, normal 0.45 ± 0.01; for B.U.N.: negative control 83.0 ± 5.1, normal 12.4 ± 0.6
Method: A normal group was subjected to the tests, where a nephritis-inducing factor, gentamicin (purchased from Whail Pharma. Co., Ltd.) was administered to male SD rats (7 weeks old, 195-205 g, Orient) at a dosage of 240 mg/kg for 6 days through an intraperitioneal injection to induce nephritis. Among the test rats with induced nephritis, the test groups other than the negative control group received the 2 test drugs of Example 2 or the test drug of Example 3.1 or 3.4 orally at a daily dosage of 400 mg/kg. The test rats were autopsied 7 days after the oral administrations. The blood samples collected were analyzed to detect blood urea nitrogen (B.U.N.) and creatinine.
To evaluate the therapeutic effect for nephritis of the three compounds of Experimental Example 9, the procedures were carried out in the same manner of Experimental Example 1 to measure the B.U.N and creatinine contents in the gentamicin-induced nephritis model. Reagents were the compounds 1, 2 and 3, which were the active fractions from the herbal extracts of Cinnamomi Cortex and Prunella Spica.

[3] = relative to negative control group

Compound | % Inhibition [1] | Creatinine [2] | B.U.N. [2] | % Inhibition ([1]; 20 mg/kg) | % Inhibition ([1]; listed as positive control group, 20 mg/kg) | effect on blood urea nitrogen (B.U.N.) content [2, 3] | effect on creatinine content [2, 3]
O=C(/C=C/c1ccc(O)c(O)c1)O[C@H](Cc1ccc(O)c(O)c1)C(=O)O [Compound 3, Rosmarinic acid] | 28.90% | 0.97 ± 0.06 mg/dL | 63.1 ± 7.2 mg/dL |  |  |  | 
COc1ccc2c(c1)c(CC(=O)O)c(C)n2C(=O)c1ccc(Cl)cc1 [Positive Control Group, Indomethacin, reference compound] |  |  |  | 38.81% | 39% |  | 
O=C(O)C=Cc1ccccc1 [Compound 1, Cinnamic acid] |  | 0.81 ± 0.07 mg/dL | 47.7 ± 5.7 mg/dL | 42% and 42.40% |  | showed an effect of reducing the blood urea nitrogen (B.U.N.) content | reduced the creatinine content
O=c1ccc2ccccc2o1 [Compound 2, Coumarin] |  | 0.88 ± 0.06 mg/dL | 50.9 ± 4.7 mg/dL | 39% and 38.79% |  | showed an effect of reducing the blood urea nitrogen (B.U.N.) content | 
